Results published in US4740233A, “Substituted 1,2,4-triazolo[1,5-a]-pyrimidine-2-sulfonamides and compositions and methods of controlling undesired vegetation and suppressing the nitrification of ammonium nitrogen in soil” (The Dow Chemical Company, priority 1986, dated 1988).

Tested on: nitrification of ammonium nitrogen
Test: Suppression of nitrification of ammonium nitrogen in soil
Details: 27° C.
Description: A sufficient volume of water was added to 20 g of the soil in a wide-mouth, screw-cap, 4-ounce, glass bottle, such that the moisture content of the mixture was made equal to the 1/3 bar tension value for that soil. The mixture was thoroughly mixed before sealing. […] Acetone slows the rate of soil nitrification and its concentration must be carefully controlled. Single samples of each test chemical were incubated for two weeks at 27° C.
The experiment comprised the following types of samples:
The soil samples were analyzed as follows: Sufficient ammonium sulfate extracting solution was added to the sample, such that the total volume of added water was 50 ml (included water added during sample preparation). The capped mixture was shaken 10 minutes to solubilize nitrate and the soil particulates were allowed to settle. The nitrate concentration in the water phase was determined with a nitrate-specific ion electrode such as Orion Model 93-07.
The non-nitrate nitrogen remaining (% NH4 -N remaining) in the soil after two weeks (performance value) was calculated as follows: [formula]

SMILES: COC(=O)c1cc2ccccc2cc1NS(=O)(=O)c1nc2nc(C)cc(C)n2n1 [Compound 245]
- % NH4-N Remaining After 2 Weeks Incubation (0.06 ppm): 0%
- % NH4-N Remaining After 2 Weeks Incubation (0.25 ppm): 0%
- % NH4-N Remaining After 2 Weeks Incubation (1 ppm): 0%
- % NH4-N Remaining After 2 Weeks Incubation (4 ppm): 30%

SMILES: Cc1cc(C)n2nc(S(=O)(=O)Nc3c(Cl)cccc3COCc3ccccc3)nc2n1 [Compound 92]
- % NH4-N Remaining After 2 Weeks Incubation (0.06 ppm): 0%
- % NH4-N Remaining After 2 Weeks Incubation (0.25 ppm): 4%
- % NH4-N Remaining After 2 Weeks Incubation (1 ppm): 0%
- % NH4-N Remaining After 2 Weeks Incubation (4 ppm): 25%

SMILES: Cc1cc(C)n2nc(S(=O)(=O)Nc3ccc(F)cc3F)nc2n1 [Compound 29]
- % NH4-N Remaining After 2 Weeks Incubation (0.01 ppm): 0%
- % NH4-N Remaining After 2 Weeks Incubation (0.1 ppm): 0%
- % NH4-N Remaining After 2 Weeks Incubation (1 ppm): 1%
- % NH4-N Remaining After 2 Weeks Incubation (10 ppm): 51%

SMILES: CSc1cccc(C)c1NS(=O)(=O)c1nc2nc(C)ccn2n1 [Compound 150]
- % NH4-N Remaining After 2 Weeks Incubation (0.06 ppm): 83%
- % NH4-N Remaining After 2 Weeks Incubation (0.25 ppm): 74%
- % NH4-N Remaining After 2 Weeks Incubation (1 ppm): 91%
- % NH4-N Remaining After 2 Weeks Incubation (4 ppm): 93%

SMILES: Cc1cc(C)n2nc(S(=O)(=O)Nc3ccncc3)nc2n1 [Compound 253]
- % NH4-N Remaining After 2 Weeks Incubation (0.01 ppm): 0%
- % NH4-N Remaining After 2 Weeks Incubation (0.1 ppm): 5%
- % NH4-N Remaining After 2 Weeks Incubation (1 ppm): 0%
- % NH4-N Remaining After 2 Weeks Incubation (10 ppm): 17%

SMILES: Cc1cc(Cl)c(NS(=O)(=O)c2nc3nc(C)cc(C)n3n2)c(Cl)c1 [Compound 47]
- % NH4-N Remaining After 2 Weeks Incubation (0.01 ppm): 0%
- % NH4-N Remaining After 2 Weeks Incubation (0.1 ppm): 40%
- % NH4-N Remaining After 2 Weeks Incubation (1 ppm): 73%
- % NH4-N Remaining After 2 Weeks Incubation (10 ppm): 92%

SMILES: Cc1cc(C)n2nc(S(=O)(=O)Nc3ccccc3S(=O)(=O)c3ccccc3)nc2n1 [Compound 96]
- % NH4-N Remaining After 2 Weeks Incubation (0.6 ppm): 0%
- % NH4-N Remaining After 2 Weeks Incubation (1.25 ppm): 0%
- % NH4-N Remaining After 2 Weeks Incubation (2.5 ppm): 7%
- % NH4-N Remaining After 2 Weeks Incubation (5 ppm): 42%
- % NH4-N Remaining After 2 Weeks Incubation (10 ppm): 100%

SMILES: Cc1cc(C)n2nc(S(=O)(=O)Nc3c(C)cccc3C(=O)OCCN(C)C)nc2n1 [Compound 73]
- % NH4-N Remaining After 2 Weeks Incubation (0.06 ppm): 26%
- % NH4-N Remaining After 2 Weeks Incubation (0.25 ppm): 47%
- % NH4-N Remaining After 2 Weeks Incubation (1 ppm): 41%
- % NH4-N Remaining After 2 Weeks Incubation (4 ppm): 62%

SMILES: COC(=O)c1sccc1NS(=O)(=O)c1nc2nc(C)cc(C)n2n1 [Compound 257]
- % NH4-N Remaining After 2 Weeks Incubation (0.01 ppm): 0%
- % NH4-N Remaining After 2 Weeks Incubation (0.1 ppm): 0%
- % NH4-N Remaining After 2 Weeks Incubation (1 ppm): 0%
- % NH4-N Remaining After 2 Weeks Incubation (10 ppm): 58%

SMILES: Cc1ccn2nc(S(=O)(=O)Nc3c(Cl)ccc(C)c3Cl)nc2n1 [Compound 147]
- % NH4-N Remaining After 2 Weeks Incubation (0.06 ppm): 41%
- % NH4-N Remaining After 2 Weeks Incubation (0.25 ppm): 55%
- % NH4-N Remaining After 2 Weeks Incubation (1 ppm): 72%
- % NH4-N Remaining After 2 Weeks Incubation (4 ppm): 87%

SMILES: Cc1cc(C)n2nc(S(=O)(=O)Nc3ccccc3[S+]([O-])C(F)(F)C(F)F)nc2n1 (stereo not drawn) [Compound 60]
- % NH4-N Remaining After 2 Weeks Incubation (0.6 ppm): 0%
- % NH4-N Remaining After 2 Weeks Incubation (1.25 ppm): 0%
- % NH4-N Remaining After 2 Weeks Incubation (2.5 ppm): 8%
- % NH4-N Remaining After 2 Weeks Incubation (5 ppm): 41%
- % NH4-N Remaining After 2 Weeks Incubation (10 ppm): 58%

SMILES: Cc1cc(C)n2nc(S(=O)(=O)Nc3ccc(Cl)cc3)nc2n1 [Compound 18]
- % NH4-N Remaining After 2 Weeks Incubation (0.01 ppm): 0%
- % NH4-N Remaining After 2 Weeks Incubation (0.1 ppm): 0%
- % NH4-N Remaining After 2 Weeks Incubation (1 ppm): 5%
- % NH4-N Remaining After 2 Weeks Incubation (10 ppm): 50%

SMILES: Cc1nc2nc(S(=O)(=O)Nc3ccccc3C(=O)OC(C)C)nn2c2c1CCC2 [Compound 110]
- % NH4-N Remaining After 2 Weeks Incubation (0.01 ppm): 0%
- % NH4-N Remaining After 2 Weeks Incubation (0.1 ppm): 0%
- % NH4-N Remaining After 2 Weeks Incubation (1 ppm): 13%
- % NH4-N Remaining After 2 Weeks Incubation (10 ppm): 59%

SMILES: Cc1cc(C)n2nc(S(=O)(=O)Nc3ncccc3Cl)nc2n1 [Compound 252]
- % NH4-N Remaining After 2 Weeks Incubation (0.01 ppm): 0%
- % NH4-N Remaining After 2 Weeks Incubation (0.1 ppm): 0%
- % NH4-N Remaining After 2 Weeks Incubation (1 ppm): 38%
- % NH4-N Remaining After 2 Weeks Incubation (10 ppm): 82%

SMILES: O=[N+]([O-])c1ccc(-c2cnc3nc(S(=O)(=O)Nc4c(Cl)cccc4Cl)nn3c2)cc1 [Compound 226]
- % NH4-N Remaining After 2 Weeks Incubation (0.06 ppm): 2%
- % NH4-N Remaining After 2 Weeks Incubation (0.25 ppm): 17%
- % NH4-N Remaining After 2 Weeks Incubation (1 ppm): 42%
- % NH4-N Remaining After 2 Weeks Incubation (4 ppm): 69%

SMILES: Cc1cc(C)n2nc(S(=O)(=O)Nc3nc4c(Cl)cccc4s3)nc2n1 [Compound 258]
- % NH4-N Remaining After 2 Weeks Incubation (0.01 ppm): 0%
- % NH4-N Remaining After 2 Weeks Incubation (0.1 ppm): 0%
- % NH4-N Remaining After 2 Weeks Incubation (1 ppm): 23%
- % NH4-N Remaining After 2 Weeks Incubation (10 ppm): 78%

SMILES: Cc1cc(C)n2nc(S(=O)(=O)Nc3ccccc3C(=O)OC(C)C)nc2n1 [Compound 36]
- % NH4-N Remaining After 2 Weeks Incubation (0.01 ppm): 0%
- % NH4-N Remaining After 2 Weeks Incubation (0.1 ppm): 0%
- % NH4-N Remaining After 2 Weeks Incubation (1 ppm): 17%
- % NH4-N Remaining After 2 Weeks Incubation (10 ppm): 60%

SMILES: Cc1cc(C)n2nc(S(=O)(=O)Nc3ccccc3SC(C)(C)C)nc2n1 [Compound 80]
- % NH4-N Remaining After 2 Weeks Incubation (0.06 ppm): 0%
- % NH4-N Remaining After 2 Weeks Incubation (0.25 ppm): 0%
- % NH4-N Remaining After 2 Weeks Incubation (1 ppm): 20%
- % NH4-N Remaining After 2 Weeks Incubation (4 ppm): 43%

SMILES: Cc1nc2nc(S(=O)(=O)Nc3c(Cl)cccc3Cl)nn2c(C)c1Cl [Compound 200]
- % NH4-N Remaining After 2 Weeks Incubation (0.06 ppm): 0%
- % NH4-N Remaining After 2 Weeks Incubation (0.25 ppm): 31%
- % NH4-N Remaining After 2 Weeks Incubation (1 ppm): 50%
- % NH4-N Remaining After 2 Weeks Incubation (4 ppm): 60%

SMILES: Cc1cc(C)n2nc(S(=O)(=O)Nc3cccnc3Cl)nc2n1 [Compound 255]
- % NH4-N Remaining After 2 Weeks Incubation (0.01 ppm): 0%
- % NH4-N Remaining After 2 Weeks Incubation (0.1 ppm): 0%
- % NH4-N Remaining After 2 Weeks Incubation (1 ppm): 37%
- % NH4-N Remaining After 2 Weeks Incubation (10 ppm): 72%

SMILES: COC(=O)c1ccc(C(=O)OC)c(NS(=O)(=O)c2nc3nc(C)cc(C)n3n2)c1 [Compound 102]
- % NH4-N Remaining After 2 Weeks Incubation (0.6 ppm): 0%
- % NH4-N Remaining After 2 Weeks Incubation (1.25 ppm): 0%
- % NH4-N Remaining After 2 Weeks Incubation (2.5 ppm): 0%
- % NH4-N Remaining After 2 Weeks Incubation (5 ppm): 24%
- % NH4-N Remaining After 2 Weeks Incubation (10 ppm): 44%

SMILES: CSc1ccccc1NS(=O)(=O)c1nc2ncccn2n1 [Compound 135]
- % NH4-N Remaining After 2 Weeks Incubation (0.01 ppm): 0%
- % NH4-N Remaining After 2 Weeks Incubation (0.1 ppm): 0%
- % NH4-N Remaining After 2 Weeks Incubation (1 ppm): 12%
- % NH4-N Remaining After 2 Weeks Incubation (10 ppm): 100%

SMILES: Cc1cc(C)n2nc(S(=O)(=O)Nc3ccc(Cl)cc3C(=O)N(C)C)nc2n1 [Compound 43]
- % NH4-N Remaining After 2 Weeks Incubation (0.01 ppm): 0%
- % NH4-N Remaining After 2 Weeks Incubation (0.1 ppm): 0%
- % NH4-N Remaining After 2 Weeks Incubation (1 ppm): 44%
- % NH4-N Remaining After 2 Weeks Incubation (10 ppm): 91%

SMILES: Cc1cc(C)n2nc(S(=O)(=O)Nc3cccc(Cl)c3C)nc2n1 [Compound 68]
- % NH4-N Remaining After 2 Weeks Incubation (0.06 ppm): 0%
- % NH4-N Remaining After 2 Weeks Incubation (0.25 ppm): 20%
- % NH4-N Remaining After 2 Weeks Incubation (1 ppm): 16%
- % NH4-N Remaining After 2 Weeks Incubation (4 ppm): 57%

SMILES: O=S(=O)(Nc1ccccc1)c1nc2ncc(Cl)cn2n1 [Compound 120]
- % NH4-N Remaining After 2 Weeks Incubation (0.06 ppm): 71%
- % NH4-N Remaining After 2 Weeks Incubation (0.25 ppm): 46%
- % NH4-N Remaining After 2 Weeks Incubation (1 ppm): 63%
- % NH4-N Remaining After 2 Weeks Incubation (4 ppm): 87%

SMILES: CCOC(=O)CN(c1c(Cl)cccc1Cl)S(=O)(=O)c1nc2nc(C)cc(C)n2n1 [Compound 264]
- % NH4-N Remaining After 2 Weeks Incubation (0.06 ppm): 0%
- % NH4-N Remaining After 2 Weeks Incubation (0.25 ppm): 1%
- % NH4-N Remaining After 2 Weeks Incubation (1 ppm): 26%
- % NH4-N Remaining After 2 Weeks Incubation (4 ppm): 37%

SMILES: Cc1cc(C)n2nc(S(=O)(=O)Nc3c(Cl)ccc(C)c3Cl)nc2n1 [Compound 46]
- % NH4-N Remaining After 2 Weeks Incubation (0.01 ppm): 50%
- % NH4-N Remaining After 2 Weeks Incubation (0.1 ppm): 71%
- % NH4-N Remaining After 2 Weeks Incubation (1 ppm): 88%
- % NH4-N Remaining After 2 Weeks Incubation (10 ppm): 94%
